Laboratory results taken from ChEMBL document CHEMBL1135356, “Multidrug resistant cancer cells susceptibility to cytotoxic taxane diterpenes from Taxus yunnanensis and Taxus chinensis” (2002).
In brackets after ≈: the same amount, converted by molar mass. Activity calls are given as the source filed them. No cut-off for these calls is given here.

Columns and labels:
[1] = Cytotoxic activity of compound was evaluated against drug resistant subline KB-7d cells; assay type: functional; conditions: Homo sapiens; read-out: ED50 (the source's name)
[2] = Cytotoxic activity of compound was evaluated against KB cell line.; assay type: functional; conditions: Homo sapiens, read-out: ED50 (the source's name)
KB 3-1 [3] = test: Cytotoxic activity of compound was evaluated against KB-VIN cells expressing (P-glycoprotein).; assay type: functional; conditions: Homo sapiens, KBVIN; read-out: ED50 (the source's name)
KB 3-1 [4] = test: Cytotoxic activity of compound was evaluated against KB-VIN cells expressing (P-glycoprotein) at conc. of 20 ug/mL; assay type: functional; conditions: Homo sapiens, KBVIN
KB = test: Cytotoxic activity of compound was evaluated against KB cell line; NA denotes not active at conc. of 20 ug/mL.; assay type: functional, cell-based; conditions: Homo sapiens
KB 3-1 [5] = test: Cytotoxic activity of compound was evaluated against drug resistant subline KB-7d cells at conc. of 20 ug/mL; assay type: functional; conditions: Homo sapiens
[6] = Cytotoxic activity of compound against KB cell lines.; assay type: functional; conditions: Homo sapiens, read-out: ED50 (the source's name)
A549 [7] = test: Cytotoxic activity of compound against A-549 tumor cell line.; assay type: functional; conditions: Homo sapiens, read-out: ED50 (the source's name)
U-87 MG [8] = test: Cytotoxic activity of compound against U-87-MG tumor cell line.; assay type: functional, U-87MG ATCC; conditions: Homo sapiens, read-out: ED50 (the source's name)
SK-MEL-2 [9] = test: Cytotoxic activity of compound against SK-MEL-2 tumor cell line.; assay type: functional; conditions: Homo sapiens, read-out: ED50 (the source's name)
A549 [10] = test: Cytotoxic activity of compound against A-549 tumor cell line at conc. of 20 ug/mL; assay type: functional; conditions: Homo sapiens
HOS [11] = test: Cytotoxic activity of compound against HOS tumor cell line.; assay type: functional; conditions: Homo sapiens, read-out: ED50 (the source's name)
MCF7 [12] = test: Cytotoxic activity of compound against MCF-7 tumor cell line.; assay type: functional; conditions: Homo sapiens, read-out: ED50 (the source's name)
MCF7 [13] = test: Cytotoxic activity of compound against MCF-7 tumor cell line at conc. of 20 ug/mL; assay type: functional; conditions: Homo sapiens
HCT-8 [14] = test: Cytotoxic activity of compound against HCT-8 tumor cell line; NA denotes not active at conc. of 20 ug/mL.; assay type: functional, cell-based; conditions: Homo sapiens
[15] = Cytotoxic activity of compound against KB cell lines at conc. of 20 ug/mL; assay type: functional; conditions: Homo sapiens
SK-MEL-2 [16] = test: Cytotoxic activity of compound against SK-MEL-2 tumor cell line at conc. of 20 ug/mL; assay type: functional; conditions: Homo sapiens
HOS [17] = test: Cytotoxic activity of compound against HOS tumor cell line at conc. of 20 ug/mL; assay type: functional; conditions: Homo sapiens
U-87 MG [18] = test: Cytotoxic activity of compound against U-87-MG tumor cell line at conc. of 20 ug/mL; assay type: functional, U-87MG ATCC; conditions: Homo sapiens
[19] = Cytotoxic activity of compound against IA-9 tumor cell line. at conc. of 20 ug/mL; assay type: functional; conditions: Homo sapiens
[20] = Cytotoxic activity of compound against IA-9 tumor cell line.; assay type: functional; conditions: Homo sapiens; read-out: ED50 (the source's name)
HCT-8 [21] = test: Cytotoxic activity of compound against HCT-8 tumor cell line.; assay type: functional; conditions: Homo sapiens, read-out: ED50 (the source's name)
[22] = Cytotoxic activity of compound was evaluated against KB cell line at conc. of 20 ug/mL; assay type: functional; conditions: Homo sapiens
KB 3-1 [23] = test: Cytotoxic activity of compound was evaluated against KB-VIN cells at conc. of 20 ug/mL; assay type: functional; conditions: Homo sapiens, KBVIN

SMILES | EC50 [1] [µg/mL] | EC50 [2] [µg/mL] | EC50 (KB 3-1 [3]) [µg/mL] | also measured
C=C1[C@@H](OC(=O)/C=C/c2ccccc2)C[C@H](OC(C)=O)[C@@]2(CCOC(C)=O)[C@@H](OC(C)=O)[C@H](OC(C)=O)[C@]3(O)[C@@]4(C)CO[C@]3(C)C(=O)C[C@H]4[C@@H](OC(C)=O)[C@H]12 | 4.6 (≈ 5.98 µM) | 6.2 (≈ 8.06 µM) | 17 (≈ 22.1 µM) | 
CC(=O)OC/C1=C\[C@H](OC(C)=O)[C@]2(C)C[C@H](OC(C)=O)C(C)=C([C@@H](OC(C)=O)/C(OC(C)=O)=C(/C)[C@@H](OC(C)=O)C[C@@H]1OC(=O)/C=C/c1ccccc1)C2(C)C | 10 (≈ 12.8 µM) | 16.6 (≈ 21.3 µM) | 13.3 (≈ 17 µM) | 
C=C1[C@@H](OC(=O)/C=C/c2ccccc2)C[C@H](OC(C)=O)[C@@]2(C)[C@@H](OC(C)=O)[C@H](OC(C)=O)C3=C(C)C(=O)C[C@@H]([C@@H](OC(C)=O)[C@H]12)C3(C)C | 4.1 (≈ 6.17 µM) | 3.9 (≈ 5.87 µM) | 3.6 (≈ 5.42 µM) | 
C=C1[C@@H](OC(=O)/C=C/c2ccccc2)CC[C@@]2(C)[C@@H](OC(C)=O)[C@H](OC(C)=O)C3=C(C)[C@@H](OC(C)=O)C[C@@H]([C@@H](O)[C@H]12)C3(C)C | 9.4 (≈ 15.4 µM) | 12.5 (≈ 20.5 µM) | 11 (≈ 18.1 µM) | 
CC(=O)O[C@H]1C(=O)[C@@]2(C)C/C(=C\[C@H](OC(C)=O)[C@@H]3C[C@H](OC(C)=O)C(C)=C1C3(C)C)[C@@H](OC(C)=O)C[C@@H]2OC(C)=O | > 20 |  | > 20 | inhibition at 20 µg/mL (KB 3-1 [4]): 5%; ED50 (KB): inactive; inhibition at 20 µg/mL (KB 3-1 [5]): 22%
C=C1[C@@H](OC(=O)/C=C/c2ccccc2)CC[C@@]2(C)[C@@H](O)[C@H](OC(C)=O)[C@@]34[C@H](C)C(=O)C[C@@H]([C@@H](OC(C)=O)C132)C4(C)C (some centres undefined) | 6.1 (≈ 10.8 µM) | 7.7 (≈ 13.6 µM) | 6.4 (≈ 11.3 µM) | 
COc1ccc(-c2cc(=O)c3c(O)cc(O)c(-c4cc(OC)ccc4-c4cc(=O)c5c(O)cc(OC)cc5o4)c3o2)cc1 |  |  | > 20 | inhibition at 20 µg/mL (KB 3-1 [4]): 9%; EC50 [6]: > 20 µg/mL; EC50 (A549 [7]): > 20 µg/mL; EC50 (U-87 MG [8]): > 20 µg/mL; EC50 (SK-MEL-2 [9]): > 20 µg/mL; inhibition at 20 µg/mL (A549 [10]): 58%; EC50 (HOS [11]): > 20 µg/mL; EC50 (MCF7 [12]): > 20 µg/mL; inhibition at 20 µg/mL (MCF7 [13]): 22%; inhibition (HCT-8 [14]): inactive; inhibition at 20 µg/mL [15]: 12%; inhibition at 20 µg/mL (SK-MEL-2 [16]): 9%; inhibition at 20 µg/mL (HOS [17]): 25%; inhibition at 20 µg/mL (U-87 MG [18]): 17%; inhibition at 20 µg/mL [19]: 44%; EC50 [20]: > 20 µg/mL
COc1ccc(-c2cc(=O)c3c(O)cc(OC)cc3o2)c(-c2c(O)cc(O)c3c(=O)cc(-c4ccc(O)cc4)oc23)c1 |  |  | > 20 | inhibition at 20 µg/mL (KB 3-1 [4]): 21%; EC50 [6]: 7.5 µg/mL (≈ 13.2 µM); EC50 (HCT-8 [21]): 8.5 µg/mL (≈ 15 µM); EC50 (A549 [7]): 5.5 µg/mL (≈ 9.71 µM); EC50 (U-87 MG [8]): 7 µg/mL (≈ 12.4 µM); EC50 (SK-MEL-2 [9]): 7 µg/mL (≈ 12.4 µM); EC50 (HOS [11]): 8 µg/mL (≈ 14.1 µM); EC50 (MCF7 [12]): 7.5 µg/mL (≈ 13.2 µM); EC50 [20]: 6 µg/mL (≈ 10.6 µM)
CC(=O)O[C@H]1CC[C@@]2(C)C[C@H](OC(C)=O)C3=C(C)CC(O)[C@@H]([C@@H](OC(C)=O)[C@@H]2C1)C3(C)C (some centres undefined) | 9.6 (≈ 21.3 µM) | > 20 | 17.3 (≈ 38.4 µM) | inhibition at 20 µg/mL [22]: 45%
C=C1[C@@H](OC(=O)/C=C/c2ccccc2)CC[C@@]2(C)[C@@H](OC(C)=O)[C@H](OC(C)=O)[C@@]34[C@H](C)C(=O)C[C@@H]([C@@H](OC(C)=O)C132)C4(C)C (some centres undefined) | 7.8 (≈ 12.9 µM) | 12.1 (≈ 19.9 µM) | 8.7 (≈ 14.3 µM) | 
CC(=O)O[C@H]1C[C@H]2[C@@H](OC(C)=O)/C=C3\C[C@@](C)([C@@H](OC(C)=O)C[C@@H]3OC(C)=O)[C@@H](O)C(=O)C(=C1C)C2(C)C | > 28 | > 20 | > 21 | inhibition at 20 µg/mL [22]: 10%; inhibition at 20 µg/mL (KB 3-1 [5]): 28%; inhibition at 20 µg/mL (KB 3-1 [23]): 21%
C=C1[C@@H](OC(=O)/C=C/c2ccccc2)C[C@H](OC(C)=O)[C@@]2(C)[C@@H](OC(C)=O)[C@H](OC(C)=O)C3=C(C)[C@@H](OC(C)=O)C[C@@H]([C@@H](OC(C)=O)[C@H]12)C3(C)C | 14.2 (≈ 20 µM) | 16 (≈ 22.6 µM) | 16.2 (≈ 22.9 µM) | 
C=C1[C@@H](OC(=O)/C=C/c2ccccc2)C[C@H](OC(C)=O)[C@]2(C)[C@@H]1C[C@@H]1C[C@H](OC(C)=O)C(C)=C([C@@H](OC(C)=O)[C@@H]2OC(C)=O)C1(C)C | 3.5 (≈ 5.38 µM) | 4.8 (≈ 7.38 µM) | 2.4 (≈ 3.69 µM) | 
C=C1[C@@H](OC(C)=O)CC[C@@]2(C)C[C@H](OC(C)=O)C3=C(C)C[C@H](OC(=O)[C@@H](C)C(C)O)[C@@H]([C@@H](OC(C)=O)[C@H]12)C3(C)C (some centres undefined) | 4.3 (≈ 7.64 µM) | 9.8 (≈ 17.4 µM) | 8.6 (≈ 15.3 µM) | 
